From patent US20120308562A1, “METHODS OF TREATING MESOTHELIOMA WITH A PI3K INHIBITOR COMPOUND” (priority 2011, published 2012)
Like-named read-outs stand apart in the source and are kept apart here.

Tests used:
hERG = hERG (Homo sapiens, UniProt Q12809); assay: hERG activity
adrenal cortical cancer = assay: Phase I tumor response by RECIST, adrenal cortical cancer patient; settings: person, 40 mg QD, 28/28 day schedule
Procedure: (§1) Tumor assessments (CT and/or magnetic resonance imaging [MRI] scans) are performed approximately every 6 weeks irrespective of dose delays, interruptions, or reductions. Bone and brain scans (either CT or MRI) may be performed at baseline and if clinically indicated during the study. Patient management decisions were made based on tumor assessments performed by investigators. The primary study endpoints related to response were determined by an independent radiologic review of patient scans, with assessments based on investigator reporting being secondary. If each non-target lesion cannot be assessed at a follow-up tumor assessment timepoint, patients may still be considered evaluable for timepoint response as long as all target lesions are measured. Patients with non-target lesions that were not assessed at a timepoint were assessed as having a partial response, stable disease, or progressive disease. All lesions, target and non-target, were assessed before a response was considered confirmed. To reduce the frequency of unevaluable non-target lesions, bone lesions visible on baseline CT scan as non-target lesion(s) for follow-up, were compared with bone lesions identified on the baseline bone scan where possible if lesions are not visible on both modalities or as easily and reproducibly assessed. […]

[1] = Phase I safety and tolerability
Procedure: (§2) Patients with a history of Type 1 or 2 diabetes mellitus requiring regular medication were excluded. GDC-0980 was administered on Day 1, followed by 1 week of washout to evaluate single-dose PK and PD markers. GDC-0980 was then dosed QD for either 21 days or 28 days every 28-day cycle. Tumor assessments were performed after Cycles 1, 2, and then every 2 cycles using RECIST guidelines. Optional FDG-PET was obtained between Days 22-28 and Days 50-57.
(§3) Fasted blood glucose & insulin were monitored at clinical visits (pre-dose & 2 hrs post-dose). Dosing with GDC-0980 was allowed with =G2 blood glucose with appropriate monitoring, i.e., additional monitoring in clinic and fingerstick glucose testing at home.
(§4) Safety Analyses: All patients who receive any amount of GDC-0980 therapy will be included in the safety analyses. Safety will be assessed through summaries of adverse events, deaths, and changes in laboratory test results. All adverse events for all patients will be collected for the safety dataset. Verbatim descriptions of adverse events will be mapped to thesaurus terms. All recorded adverse event data will be listed by study site, patient, and cycle. All adverse events occurring on or after the first treatment will be summarized by mapped term, appropriate thesaurus levels, and NCI CTCAE, v3.0 toxicity grade. All serious adverse events will be listed separately and summarized. In addition, the incidence of symptomatic CHF and/or LVEF <40% will be summarized. Deaths reported during the study treatment period and those reported during follow-up after patient treatment discontinuation will be summarized. Laboratory data will be summarized by grade using the NCI CTCAE, v3.0 toxicity grade. Changes in LVEF over time will be summarized and listed by scheduled measurement time. The occurrence of antibodies to GDC-0980 will be listed.

[2] = pharmacokinetics after a single oral dose (species not given); assay type: in vivo; settings: species not stated
mesothelioma = assay: Phase I tumor response by RECIST, mesothelioma patients; settings: person; for decrease in target lesions by RECIST: 21/28 day schedule
Procedure: Tumor assessments (CT and/or magnetic resonance imaging [MRI] scans) are performed approximately every 6 weeks irrespective of dose delays, interruptions, or reductions. Bone and brain scans (either CT or MRI) may be performed at baseline and if clinically indicated during the study. Patient management decisions were made based on tumor assessments performed by investigators. The primary study endpoints related to response were determined by an independent radiologic review of patient scans, with assessments based on investigator reporting being secondary. If each non-target lesion cannot be assessed at a follow-up tumor assessment timepoint, patients may still be considered evaluable for timepoint response as long as all target lesions are measured. Patients with non-target lesions that were not assessed at a timepoint were assessed as having a partial response, stable disease, or progressive disease. All lesions, target and non-target, were assessed before a response was considered confirmed. To reduce the frequency of unevaluable non-target lesions, bone lesions visible on baseline CT scan as non-target lesion(s) for follow-up, were compared with bone lesions identified on the baseline bone scan where possible if lesions are not visible on both modalities or as easily and reproducibly assessed.
Tumor assessments were performed after Cycles 1, 2, and then every 2 cycles using RECIST guidelines. Optional FDG-PET was obtained between Days 22-28 and Days 50-57.

clearance in dogs = settings: dog, in vivo
MCF7-neo/HER2 cell line = MCF7-neo/HER2 cell line IC50; assay type: cell-based
[3] = tested on: MDA-MB-361.1 breast cancer xenograft; assay: MDA-MB-361.1 breast cancer xenograft model; assay type: in vivo; settings: QD
mTOR = mTOR (Homo sapiens, UniProt P42345); assay: biochemical
[4] = in vivo
Procedure: as §2, §3, §4

clearance in rodents = settings: in vivo
pAKT (S473) in PRP = assay: pAKT in platelet-rich plasma (MSD assay), Phase I; assay type: in vivo, human
Procedure: pAKT in PRP: Total AKT and pAKT (S473) in PRP were measured by Meso Scale Discovery (MSD) assay, and the percent change in pAKT relative to baseline was calculated.

MDA-MB-361.1 xenografts = assay: nonclinical PK/PD model of tumor growth inhibition with predicted human PK; settings: predicted human PK and nonclinical PD data, preliminary
Description: A nonclinical PK/PD model of tumor growth inhibition was developed using the indirect response model (Jusko W J. “Pharmacodynamics of chemotherapeutic effects: dose-time-response relationships for phase-nonspecific agents”, J Pharm Sci (1971) 60:892-5) to fit exposure and growth inhibition data based on four sets of experiments examining varying schedules and doses in the MDA-MB-361.1 xenografts. The PK/PD model was then used to predict minimal exposure needed to achieve 50% tumor growth inhibition, using the predicted human PK data and the nonclinical PD data. […] On the basis of MLP allometric scaling, a daily dose of approximately 18 mg may achieve this exposure. Dose escalation will continue until the MTD, even if 1.7 μM·hr exposure is surpassed and well tolerated, since it is well established that tumor xenograft models are not absolutely predictive of clinical response (Sausville and Burger 2006).

[5] = Phase I clinical pharmacokinetics (plasma, LC-MS/MS); assay type: in vivo, human; settings: for AUC(0-t): oral, individual patient, read-out: AUC0-24 h
Procedure: For Cycle 1 of the Phase I study, a single dose of GDC-0980 is administered to patients on Day 1 in a clinical setting that can accommodate frequent blood draws over a period of up to 48 hours after the dose is administered. Daily dosing will begin on Day 8 and continue for 21 days (Days 8-28), followed by a 7-day off-drug observation period (Days 29-35). Subsequent cycles will be 28 days in length (21 days of daily dosing followed by a 7-day observation period). Additional cohorts may be added to examine the tolerability of a 28-day dosing schedule with no observation period after the MTD is […] defined for the 21-day dosing schedule. GDC-0980 should be taken on an empty stomach (fasting) in the morning, unless otherwise instructed. For all patients Days 1 and 15 (PK sampling days), patients should be fasted overnight (at least 8-10 hours) prior to their dose on those days. On other days, patients should avoid consuming anything but water for 1 hour before and 2 hours after GDC-0980 administration. Each dose should be taken with a minimum of 3-4 ounces of water. […] PK: Plasma GDC-0980 concentrations were assayed by LC-MS/MS (Tandem Labs, Inc., Salt Lake City, Utah) with LLOQ 0.5 ng/mL and analyzed using noncompartmental analysis.

[6] = stability in human hepatocytes; assay type: in vitro ADME
solid tumors = assay: Phase I best RECIST response and time on study, all enrolled patients; settings: peritoneal mesothelioma and adrenal cancer patients
Procedure: as §1

[7] = stability in human microsomes; assay type: in vitro ADME
[8] = human, plasma, patients, single oral dose

hERG, sequence (Q12809 whole entry): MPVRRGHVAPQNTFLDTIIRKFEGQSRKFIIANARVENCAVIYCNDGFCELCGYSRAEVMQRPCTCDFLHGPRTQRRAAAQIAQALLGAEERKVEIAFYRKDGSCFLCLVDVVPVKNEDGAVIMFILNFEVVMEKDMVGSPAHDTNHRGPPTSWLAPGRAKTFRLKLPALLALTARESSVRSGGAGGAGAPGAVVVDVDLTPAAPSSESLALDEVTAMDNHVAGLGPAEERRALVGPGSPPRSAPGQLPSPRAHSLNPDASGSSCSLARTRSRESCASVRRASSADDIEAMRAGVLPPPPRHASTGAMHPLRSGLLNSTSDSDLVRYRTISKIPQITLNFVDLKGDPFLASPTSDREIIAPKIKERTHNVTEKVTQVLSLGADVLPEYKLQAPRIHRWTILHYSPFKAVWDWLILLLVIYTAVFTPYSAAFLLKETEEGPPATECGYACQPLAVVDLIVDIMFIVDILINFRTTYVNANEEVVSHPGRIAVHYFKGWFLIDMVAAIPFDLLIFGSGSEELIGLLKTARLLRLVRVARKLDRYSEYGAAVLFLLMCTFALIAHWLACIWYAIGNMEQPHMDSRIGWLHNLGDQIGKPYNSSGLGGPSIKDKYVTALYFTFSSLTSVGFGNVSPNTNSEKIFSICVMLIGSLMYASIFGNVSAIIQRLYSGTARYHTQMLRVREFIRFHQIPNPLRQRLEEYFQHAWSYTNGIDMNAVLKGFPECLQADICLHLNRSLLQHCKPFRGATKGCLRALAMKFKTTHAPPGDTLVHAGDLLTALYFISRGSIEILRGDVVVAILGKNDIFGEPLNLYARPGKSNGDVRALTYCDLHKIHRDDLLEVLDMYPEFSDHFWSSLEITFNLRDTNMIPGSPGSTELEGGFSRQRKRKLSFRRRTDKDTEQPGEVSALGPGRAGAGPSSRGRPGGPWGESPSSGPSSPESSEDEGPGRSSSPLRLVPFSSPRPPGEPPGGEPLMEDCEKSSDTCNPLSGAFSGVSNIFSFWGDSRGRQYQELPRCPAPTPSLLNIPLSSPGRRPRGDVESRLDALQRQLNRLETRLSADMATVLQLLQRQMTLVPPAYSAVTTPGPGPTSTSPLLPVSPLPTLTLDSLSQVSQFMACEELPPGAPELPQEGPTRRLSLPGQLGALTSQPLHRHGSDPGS

Cc1c(CN2CCN(C(=O)[C@H](C)O)CC2)sc2c(N3CCOCC3)nc(-c3cnc(N)nc3)nc12 [GDC-0980, (S)-1-(4-((2-(2-aminopyrimidin-5-yl)-7-methyl-4-morpholinothieno[3,2-d]pyrimidin-6-yl)methyl)piperazin-1-yl)-2-hydroxypropan-1-one]
IC50 (hERG): > 100 µM
decrease in target lesions by RECIST (adrenal cortical cancer; after 3 weeks of treatment in Cycle 2): 39%
decrease in target lesions by RECIST (adrenal cortical cancer; end of Cycle 1): 22%
dose at which the MTD was exceeded ([1]; QD, 21/28-day schedule): 70 mg
G5 adverse event considered related to GDC-0980 ([1]; metastatic colorectal cancer patient, 50 mg QD, about 1 week after starting Cycle 2): G5 adverse event of colitis
half-life ([2]; in vivo, read-out: terminal half-life): 6 to 18 h
dose dependence of AUC and Cmax [2]: dose-proportional increases
time on study before progression of disease (mesothelioma; epitheloid mesothelioma, 8 mg QD, 21/28): about 4.5 months
decrease in target lesions by RECIST (mesothelioma; epitheloid mesothelioma, PIK3CA R88Q, 8 mg QD, end of Cycle 2): 26%
decrease in target lesions by RECIST (mesothelioma; epitheloid pleural mesothelioma, 50 mg QD, end of Cycles 1 and 2): 26%
decrease in target lesions by RECIST (mesothelioma; peritoneal mesothelioma, 32 mg QD, end of Cycle 6): 28%
clearance (clearance in dogs): 0.72 L/h/kg
IC50 (MCF7-neo/HER2 cell line): 0.32 µM
minimum dose producing significant growth inhibition [3]: 1.0 mg/kg
Ki (mTOR): 0.0173 µM
patients with increased blood glucose ([4]; human): 83.3%
drug-related AEs that occurred in =10% of patients [4]: fatigue, diarrhea, rash, nausea, decreased appetite, mucositis, hyperglycemia, vomiting, pruritus, GERD (Gastroesophageal reflux disease), and constipation
number of patients with G3 increased blood glucose [4]: Six
clearance (clearance in rodents): 3.6 L/h/kg
decrease in pAKT in PRP (pAKT (S473) in PRP; doses of 16 mg): 90%
time for which significant inhibition of pAKT was maintained (pAKT (S473) in PRP; doses of 50 mg): 24 hours
minimal exposure (AUC) needed to achieve 50% tumor growth inhibition (MDA-MB-361.1 xenografts): approximately 1.7 μM·hr
AUC(0-t) ([5]; human, plasma, 8 mg QD, 21/28 day schedule): ~0.4 µM·h
AUC(0-t) ([5]; human, plasma, 32 mg QD, 21/28 day schedule): ~4.4 µM·h
AUC(0-t) ([5]; human, plasma, 40 mg QD, 28/28 day schedule): ~4.1 µM·h
AUC(0-t) ([5]; human, plasma, 50 mg QD, 21/28 day schedule): ~3 µM·h
Tmax [5, 8]: ~2 h
half-life [5, 8]: 6 to 18 h
dose dependence of AUC and Cmax ([5]; patients, single oral dose): dose-proportional increases
stability in human hepatocytes [6]: stable
number of patients still on study after a year (solid tumors): 2
stability in human microsomes [7]: stable
